# Experimental data taken from patent publication US20250027123A1, “Compositions, Systems, and Methods for Performing a Mannich Cyclization Reaction” (The Regents of the University of California, priority 2023, published 2025).
# Tests used:
# LolT [1] = molecular target: T1, LolT (Penicillium expansum, UniProt A0A0A2J6G6); type: biochemical; conditions: 10 μM LolT, 4 mM diamino acid, pH 7.5 in D2O, 28° C.
# Description: FIGS. 16A-16D provides reaction schematics and data of hydrogen-deuterium exchange assay of LolT with diamino acid substrate analogues. All reactions were monitored by 1H-NMR spectra and boiled enzymes were used as control. For mass data analysis, the reaction mixtures were derivatized with Fmoc-Cl.
# H/D exchange assay. […] Reaction was incubated at 28° C. and monitored by NMR and LC-MS (reaction mixture was derivatized with Fmoc-Cl as described above before MS analysis). Fully deuterated products were further derivatized with Marfey's reagent (TCL) for chiral analysis. Briefly, an 80 μL reaction mixture was mixed with 20 μL acetone solution of Marfey's reagent (50 mM) and 20 μL NaHCO3 solution (1 M). The resulting mixture was incubated in a 42° C. water bath for 30 min. Next, 10 μL HCl (2M) was added to the derivatization mixture to quench the reaction. The resultant solution was analyzed on a Shimadzu LC-40 HPLC equipped with a Cosmosil, C18 AR-II analytical column. Derivatized amino acids were eluted with a linear gradient from 10% acetonitrile and to 40% acetonitrile over 20 min with a flow rate at 1 mL/min. All HPLC solvents (water and acetonitrile) were supplemented with 0.1% (v/v) formic acid.
# LolD = molecular target: T2, LolD (Epichloe uncinata, UniProt Q5MNI5); test: Enzymatic assay for LolD (conversion monitored by HPLC/LC-MS after Fmoc-Cl derivatization); type: biochemical, E. uncinate; conditions: phosphate buffer pH 7.5, 28° C.
# T2 construct: Bacterial expression plasmids were ordered from Twist Biosciences; made in house; host or cells: E. coli BL21(DE3)
# T2 sequence (Q5MNI5 1-420): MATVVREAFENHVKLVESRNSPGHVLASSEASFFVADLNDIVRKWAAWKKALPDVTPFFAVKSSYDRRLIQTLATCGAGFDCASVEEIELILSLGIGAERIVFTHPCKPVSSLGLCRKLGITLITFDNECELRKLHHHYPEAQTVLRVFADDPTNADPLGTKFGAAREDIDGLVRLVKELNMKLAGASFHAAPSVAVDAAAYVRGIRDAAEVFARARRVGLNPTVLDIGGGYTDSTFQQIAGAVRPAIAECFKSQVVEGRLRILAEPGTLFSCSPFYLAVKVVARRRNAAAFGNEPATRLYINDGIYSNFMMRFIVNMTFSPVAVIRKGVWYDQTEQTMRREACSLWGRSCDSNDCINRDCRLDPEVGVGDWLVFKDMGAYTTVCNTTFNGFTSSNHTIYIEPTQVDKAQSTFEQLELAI
# Text: FIGS. 4A-4D provides schematics and data identifying LolT as a PLP-dependent Mannich cyclase. FIG. 4A provides a schematic depicting an elucidated pathway for the pyrrolizidine formation of loline. FIG. 4B provides HPLC analysis showing the reactions catalysed by LolT and LolD. All reactions were repeated for at least 3 times. Products were derivatized with Fmoc-Cl and analyzed by HPLC using a C18 column (Phenomenex Kinetex, 1.7 μm, 2.0×100 mm) with a linear elution gradient of 2-98% MeCN—H2O solvent system supplemented with 0.1% formic acid as additive. FIG. 4C provides DFT-calculated Mannich cyclization transition state for anti TS-1. FIG. 4D provides DFT-calculated Mannich cyclization transition state for syn TS-2.
# FIGS. 7A-7B provides data of control experiments testing the function LolT and LolD using alternative substrates. FIG. 7A: Incubating LolD (10 μM) with 2 (1 mM) in phosphate buffer (pH 7.5) for 12 hrs at 28° C. FIG. 7B: Incubating LolT (1 μM) with decarboxylated 2 (1 mM) in phosphate buffer (pH 7.5) for 12 hrs at 28° C. All reactions were derivatized with Fmoc-Cl (50 mM) and analyzed by HPLC and LCMS. Decarboxylated 2 was prepared in situ by global deprotection of 12b, synthesis of 12b.
# Enzymatic assays for LolT and LolD. […] The product was quantified based on the peak area of derivatized sample and compared with standard curve. […]
# LolT [2] = molecular target: T1, LolT; test: Steady-state kinetic analysis of LolT-catalyzed Mannich cyclization; type: biochemical, P. expansum; conditions: reaction forming the named product
# Description: FIGS. 10A-10B provide data of steady-state kinetic study of LolT and LolD. […] The results from both Fmoc-Cl and OPA derivatization were shown for comparison.
# FIG. 10B: Kinetic analysis of LolD-catalyzed nonoxidative decarboxylation. All reactions were performed in assay buffer: phosphate buffer (pH 7.5), 50 μM PLP, corresponding substrate at various concentrations. For 5-endo cyclization, LolT was added to a final concentration of 0.1 μM and the reaction was quenched after 1 min; while for 6-endo cyclization, LolT was added to a final concentration of 1 μM and the reaction was quenched after 1 min, and for 7-endo cyclization, LolT was added to a final concentration of 10 μM and the reaction was quenched after 5 min. For decarboxylation reaction, LolD was added to a final concentration of 1 μM and the reaction was quenched after 20 min. The derivatization method was described in the methods section. All assays were performed in triplicates at 28° C. and individual point was shown on the plot. Except for reaction forming 5, all data were fitted to the standard Michalis-Menton equation.
# Enzymatic assays for LolT and LolD. A typical reaction mixture (˜50 μl) includes ˜1 mM amino acid substrate in the assay buffer (50 mM K2HPO4, 50 μM PLP, pH 7.5). […] The product was quantified based on the peak area of derivatized sample and compared with standard curve. […]
# LolT [3] = molecular target: T1, LolT; test: Two-component Mannich cyclization assay; type: biochemical, P. expansum; conditions: diamino acid plus aldehyde, KPi buffer
# Description: Two-component Mannich cyclization assay. A typical reaction mixture at analytical scale (˜50 μL) includes 5 μM LolT, 5 mM diamino acid substrate, and 25 mM aldehyde substrates in 50 mM KPi buffer supplemented with 5% (v/v) DMSO. The reaction mixture was taken at different time points and derivatized with ortho-phthaldialdehyde (OPA) and 5-mercaptopentanoic acid before analysis on LC-MS. The pH value, reaction temperature, reaction time, and free PLP concentration (0.1%-10% mol) were optimized for selected reactions according to the analytic yield and diastereisomeric ratio (d.r.). Optimized reactions were scaled up to isolate the corresponding product for structural determination. To ease product isolation, the reaction mixtures were derivatized with Boc anhydride and isolated by reverse-phase chromatography. The isolated Boc-protected products were deprotected with TFA/CH2Cl2 and the isolation yields were calculated based on the Boc-protected form. To determine the enantiomeric excess (e.e.), isolated products were derivatized with Na-(5-fluoro-2,4-dinitrophenyl)-L-leucinamide and Na-(5-fluoro-2,4-dinitrophenyl)-D-leucinamide and separated on LC-MS. Briefly, 10 μL of amino acid product (10 mM in MeOH) was mixed with 10 μL of Na2CO3 (1 mM) and 10 μL of derivatizing reagent. […] The resulting mixture was analyzed by LC-MS.
# T1 sequence (A0A0A2J6G6 entry or part of it): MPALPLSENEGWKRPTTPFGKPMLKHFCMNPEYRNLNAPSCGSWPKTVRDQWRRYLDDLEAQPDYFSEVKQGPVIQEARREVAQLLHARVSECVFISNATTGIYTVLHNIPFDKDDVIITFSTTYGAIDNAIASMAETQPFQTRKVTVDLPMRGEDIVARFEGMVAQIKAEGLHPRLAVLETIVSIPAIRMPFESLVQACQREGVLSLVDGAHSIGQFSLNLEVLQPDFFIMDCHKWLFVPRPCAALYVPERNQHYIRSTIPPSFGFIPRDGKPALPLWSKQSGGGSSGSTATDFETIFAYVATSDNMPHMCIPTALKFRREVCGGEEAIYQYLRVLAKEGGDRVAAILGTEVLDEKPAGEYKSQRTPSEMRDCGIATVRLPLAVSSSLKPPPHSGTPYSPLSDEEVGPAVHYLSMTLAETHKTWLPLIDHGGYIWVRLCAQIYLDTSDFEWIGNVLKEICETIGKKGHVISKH
Structure (SMILES),Cα-H H/D exchange (carbanion formation) with LolT in D2O (in words) (LolT [1]),decrease of catalytic efficiency in comparison with 5-endo-trig cyclization to make 3 (LolT [2]),other results
NCC[C@@H](N)C(=O)O [D-Dab],no H/D exchange occurred,–,–
"NCC[C@H](N)C(=O)O [L-Dab, (S)-2,4-diaminobutanoic acid]",rapidly washed out,–,–
"N[C@@]1(C(=O)O)CCN2CCC[C@@H]21 [compound 3, (1S,7aR)-1-aminohexahydro-1H-pyrrolizine-1-carboylic acid]",–,–,conversion on incubation with LolD (in words) (LolD): quantitative conversion
"N[C@@]1(C(=O)O)CCCN2CCC[C@@H]21 [compound 5, (8S,8aR)-8-aminooctahydroindolizine-8-carboxylic acid]",–,~12 fold,–
"N[C@@]1(C(=O)O)CCCCN2CCC[C@@H]21 [compound 7, (9S,9aR)-9-aminooctahydro-1H-pyrrolo[1,2-a]azepine-9-carboxylic acid]",–,"~1,000 fold",–
NCCCC[C@H](N)C(=O)O [lysine],–,–,Mannich cyclization as amino acid donor with aldehydes (in words) (LolT [3]): No Mannich cyclization reaction took place
